Test results as given in article PMC10150366, “Discovery of an In Vivo Chemical Probe for BCL6 Inhibition by Optimization of Tricyclic Quinolinones” (Journal of Medicinal Chemistry, 2023).

Legend:
SU-DHL-4 = test: 14-day cell proliferation assay, SU-DHL-4; type: cell-based; details: Homo sapiens, 14-day assay
Excerpt: DMSO final concentration.
After a short centrifugation the
(1st emission filter) / 450-80 nm (2nd emission filter). The % inhibition at each test concentration was […]
sigmoidal four-parameter logistic fit equation.
2.3 Cell proliferation assay
Aldrich) supplemented with 10% FBS (Gibco). Compounds were initially dispensed into 96-well U-bottom […]
transferred onto the cells.
Assay plates containing cells
(Beckman Coulter). The volume of medium containing 2500 cells in the control well was calculated and this volume of cells was transferred from every well of the assay plates to the corresponding well of the fresh plates containing compound. After 14 days, CellTiter Glo reagent (Promega) was added to the medium in each well of the assay plate at a ratio of 1:2, mixed on a plate shaker, then incubated at room temperature for 10 minutes. Luminescence was measured using an Envision plate reader (Perkin Elmer) and the relative luminescence at each compound concentration, compared to DMSO alone, was calculated. GI50 were determined using a 4-parameter curve fit in Dotmatics (Bishops Stortford, UK).

SERT = SERT (Homo sapiens, UniProt P31645); test: SAFETYscan Transporter SERT Blocker; type: cell-based
Excerpt: (§1) Supplement jm3c00155_si_002.xlsx, sheet "SAFETYScan" | column: RC50 (uM); Max Response

LCK = LCK (Homo sapiens, UniProt P06239); test: SAFETYscan Kinases Binding LCK Inhibitor
Excerpt: as §1

OPRK1 = OPRK1 (Homo sapiens, UniProt P41145); test: SAFETYscan cAMP OPRK1 Antagonist; type: cell-based
Excerpt: as §1

ADRB2 = ADRB2 (Homo sapiens, UniProt P07550); test: SAFETYscan cAMP ADRB2 Antagonist; type: cell-based
Excerpt: (§2) Supplement jm3c00155_si_002.xlsx, sheet "SAFETYScan" | column: RC50 (uM); Hill; Max Response

ADRA2A = target: T1, ADRA2A (Homo sapiens, UniProt P08913); test: SAFETYscan cAMP ADRA2A Antagonist; type: cell-based
T1 sequence (P08913 1-465): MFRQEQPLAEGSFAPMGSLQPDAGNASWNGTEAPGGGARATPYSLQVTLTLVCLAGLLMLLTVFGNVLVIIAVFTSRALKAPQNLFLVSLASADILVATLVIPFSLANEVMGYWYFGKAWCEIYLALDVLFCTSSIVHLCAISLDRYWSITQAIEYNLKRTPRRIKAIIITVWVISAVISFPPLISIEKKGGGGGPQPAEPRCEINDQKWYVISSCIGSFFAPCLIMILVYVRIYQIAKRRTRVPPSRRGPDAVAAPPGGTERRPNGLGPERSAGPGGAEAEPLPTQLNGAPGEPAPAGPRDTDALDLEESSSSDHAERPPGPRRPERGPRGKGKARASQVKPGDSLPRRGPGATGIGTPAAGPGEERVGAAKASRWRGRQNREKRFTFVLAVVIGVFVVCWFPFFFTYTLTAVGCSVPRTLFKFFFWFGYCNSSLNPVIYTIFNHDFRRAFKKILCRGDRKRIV
Excerpt: as §1

CCKAR = target: T2, CCKAR (Homo sapiens, UniProt P32238); test: SAFETYscan Calcium Flux CCKAR Agonist; type: cell-based
T2 sequence (P32238 1-428): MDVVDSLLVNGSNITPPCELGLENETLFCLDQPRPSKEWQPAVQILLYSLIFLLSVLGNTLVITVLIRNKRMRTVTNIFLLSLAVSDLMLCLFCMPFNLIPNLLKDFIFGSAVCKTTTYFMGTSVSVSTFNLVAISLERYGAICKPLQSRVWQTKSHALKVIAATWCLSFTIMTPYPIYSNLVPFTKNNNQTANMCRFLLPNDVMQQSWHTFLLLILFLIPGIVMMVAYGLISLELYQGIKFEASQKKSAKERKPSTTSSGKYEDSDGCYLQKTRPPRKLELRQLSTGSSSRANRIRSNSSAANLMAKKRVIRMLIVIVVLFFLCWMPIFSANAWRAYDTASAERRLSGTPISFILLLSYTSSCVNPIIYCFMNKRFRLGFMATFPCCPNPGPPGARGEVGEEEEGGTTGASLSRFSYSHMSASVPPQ
Excerpt: as §1

DRD2S = DRD2S (Homo sapiens, UniProt P14416); test: SAFETYscan cAMP DRD2S Agonist; type: cell-based
Excerpt: as §2

CAV1.2 = CAV1.2 (Homo sapiens, UniProt Q13936); test: in vitro; type: cell-based
Excerpt: as §1

PDE3A = PDE3A (Homo sapiens, UniProt Q14432); test: SAFETYscan Enzymatic PDE3A Inhibitor; type: biochemical
Excerpt: as §1

nAChR(a4/b2) = nAChR(a4/b2) (Homo sapiens, UniProt P17787+P43681); test: SAFETYscan Ion Channel nAChR(a4/b2) Blocker; type: cell-based
Excerpt: as §1

GABAA = GABAA (Homo sapiens, UniProt P14867+P18507+P47870); test: SAFETYscan Ion Channel GABAA Blocker; type: cell-based
Excerpt: as §1

Sequence of ADRB2 (P07550 whole entry): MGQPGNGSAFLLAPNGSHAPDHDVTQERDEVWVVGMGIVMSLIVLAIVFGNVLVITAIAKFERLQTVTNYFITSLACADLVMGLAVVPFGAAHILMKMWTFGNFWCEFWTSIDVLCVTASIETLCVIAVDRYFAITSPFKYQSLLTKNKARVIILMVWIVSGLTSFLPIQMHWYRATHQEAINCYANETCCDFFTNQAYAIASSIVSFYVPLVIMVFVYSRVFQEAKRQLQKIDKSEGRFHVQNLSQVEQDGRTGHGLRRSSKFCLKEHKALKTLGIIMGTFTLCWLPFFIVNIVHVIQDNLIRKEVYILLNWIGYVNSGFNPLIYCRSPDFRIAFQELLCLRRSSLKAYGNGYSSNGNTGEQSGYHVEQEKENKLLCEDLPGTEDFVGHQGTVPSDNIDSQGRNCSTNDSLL
Sequence of DRD2S (P14416 1-414 isoform P14416-2): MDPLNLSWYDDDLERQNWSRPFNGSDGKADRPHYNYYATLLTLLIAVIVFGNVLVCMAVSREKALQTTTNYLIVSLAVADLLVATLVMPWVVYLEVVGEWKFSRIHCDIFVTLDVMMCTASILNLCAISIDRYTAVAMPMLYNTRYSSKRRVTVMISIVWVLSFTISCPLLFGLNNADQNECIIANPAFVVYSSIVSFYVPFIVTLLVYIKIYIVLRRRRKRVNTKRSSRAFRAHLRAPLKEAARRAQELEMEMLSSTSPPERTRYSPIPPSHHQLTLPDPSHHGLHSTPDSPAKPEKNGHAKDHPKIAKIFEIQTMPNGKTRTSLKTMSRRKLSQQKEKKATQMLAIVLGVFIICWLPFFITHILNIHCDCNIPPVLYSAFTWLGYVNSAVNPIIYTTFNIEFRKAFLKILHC
Sequence of PDE3A (Q14432 whole entry, species assumed): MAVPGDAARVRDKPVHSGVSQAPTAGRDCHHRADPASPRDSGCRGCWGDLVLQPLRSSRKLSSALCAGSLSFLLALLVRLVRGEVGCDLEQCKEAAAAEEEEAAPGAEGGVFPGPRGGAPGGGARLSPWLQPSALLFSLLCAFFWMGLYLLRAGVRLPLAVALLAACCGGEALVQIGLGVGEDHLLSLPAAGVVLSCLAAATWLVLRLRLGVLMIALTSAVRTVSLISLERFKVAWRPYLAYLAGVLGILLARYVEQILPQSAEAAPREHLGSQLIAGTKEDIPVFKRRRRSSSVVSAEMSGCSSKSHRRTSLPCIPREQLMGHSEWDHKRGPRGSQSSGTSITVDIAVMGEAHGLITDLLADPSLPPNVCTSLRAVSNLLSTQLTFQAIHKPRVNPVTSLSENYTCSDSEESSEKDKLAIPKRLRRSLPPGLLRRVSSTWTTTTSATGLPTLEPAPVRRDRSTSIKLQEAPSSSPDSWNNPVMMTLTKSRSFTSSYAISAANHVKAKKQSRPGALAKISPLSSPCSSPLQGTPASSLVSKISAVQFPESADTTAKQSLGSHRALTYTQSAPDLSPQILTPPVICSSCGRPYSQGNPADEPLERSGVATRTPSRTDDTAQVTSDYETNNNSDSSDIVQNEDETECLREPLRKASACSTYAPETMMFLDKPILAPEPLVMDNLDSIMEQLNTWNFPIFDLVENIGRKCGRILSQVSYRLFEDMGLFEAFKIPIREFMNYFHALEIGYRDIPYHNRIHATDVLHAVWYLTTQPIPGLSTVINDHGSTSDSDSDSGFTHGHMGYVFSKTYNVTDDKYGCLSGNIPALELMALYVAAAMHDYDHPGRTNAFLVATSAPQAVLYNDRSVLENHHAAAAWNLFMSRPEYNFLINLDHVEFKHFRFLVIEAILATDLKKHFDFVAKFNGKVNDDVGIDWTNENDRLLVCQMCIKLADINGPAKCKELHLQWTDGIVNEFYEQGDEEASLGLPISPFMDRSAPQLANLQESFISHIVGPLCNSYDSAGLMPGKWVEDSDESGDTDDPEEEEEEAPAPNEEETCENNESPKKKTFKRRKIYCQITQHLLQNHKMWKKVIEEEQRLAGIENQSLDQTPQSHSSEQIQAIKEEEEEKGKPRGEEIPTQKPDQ
Sequence of LCK (P06239 whole entry): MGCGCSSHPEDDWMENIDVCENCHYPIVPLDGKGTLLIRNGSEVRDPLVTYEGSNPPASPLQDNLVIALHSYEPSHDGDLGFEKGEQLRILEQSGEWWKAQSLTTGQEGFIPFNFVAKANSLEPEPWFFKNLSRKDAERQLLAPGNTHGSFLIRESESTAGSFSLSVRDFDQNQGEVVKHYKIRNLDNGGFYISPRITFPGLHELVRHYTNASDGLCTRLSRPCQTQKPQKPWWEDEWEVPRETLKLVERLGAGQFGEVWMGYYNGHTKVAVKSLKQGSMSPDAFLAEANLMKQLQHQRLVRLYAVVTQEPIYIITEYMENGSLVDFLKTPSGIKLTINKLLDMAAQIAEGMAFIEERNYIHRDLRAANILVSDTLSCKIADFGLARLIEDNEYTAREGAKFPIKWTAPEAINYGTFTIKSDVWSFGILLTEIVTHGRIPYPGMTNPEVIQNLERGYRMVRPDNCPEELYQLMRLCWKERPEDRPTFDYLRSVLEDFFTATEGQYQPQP
Sequence of nAChR(a4/b2) (P43681 29-627 limits assumed): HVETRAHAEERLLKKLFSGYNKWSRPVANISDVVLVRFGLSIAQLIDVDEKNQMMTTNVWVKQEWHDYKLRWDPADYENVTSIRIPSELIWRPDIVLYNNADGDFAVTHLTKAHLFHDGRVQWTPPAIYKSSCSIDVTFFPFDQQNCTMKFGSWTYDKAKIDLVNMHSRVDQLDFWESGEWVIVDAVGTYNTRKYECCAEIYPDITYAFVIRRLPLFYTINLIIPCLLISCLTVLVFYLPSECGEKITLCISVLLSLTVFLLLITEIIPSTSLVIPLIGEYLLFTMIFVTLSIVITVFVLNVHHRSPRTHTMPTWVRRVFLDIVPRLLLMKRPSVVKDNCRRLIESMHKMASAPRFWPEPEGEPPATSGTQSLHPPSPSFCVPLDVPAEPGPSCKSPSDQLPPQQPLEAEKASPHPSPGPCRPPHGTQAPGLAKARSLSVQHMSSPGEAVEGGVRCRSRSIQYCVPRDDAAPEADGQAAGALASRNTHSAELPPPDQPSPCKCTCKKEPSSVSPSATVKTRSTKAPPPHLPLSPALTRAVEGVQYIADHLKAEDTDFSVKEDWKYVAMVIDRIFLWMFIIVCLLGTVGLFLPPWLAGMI
Sequence of nAChR(a4/b2) (P17787 26-502): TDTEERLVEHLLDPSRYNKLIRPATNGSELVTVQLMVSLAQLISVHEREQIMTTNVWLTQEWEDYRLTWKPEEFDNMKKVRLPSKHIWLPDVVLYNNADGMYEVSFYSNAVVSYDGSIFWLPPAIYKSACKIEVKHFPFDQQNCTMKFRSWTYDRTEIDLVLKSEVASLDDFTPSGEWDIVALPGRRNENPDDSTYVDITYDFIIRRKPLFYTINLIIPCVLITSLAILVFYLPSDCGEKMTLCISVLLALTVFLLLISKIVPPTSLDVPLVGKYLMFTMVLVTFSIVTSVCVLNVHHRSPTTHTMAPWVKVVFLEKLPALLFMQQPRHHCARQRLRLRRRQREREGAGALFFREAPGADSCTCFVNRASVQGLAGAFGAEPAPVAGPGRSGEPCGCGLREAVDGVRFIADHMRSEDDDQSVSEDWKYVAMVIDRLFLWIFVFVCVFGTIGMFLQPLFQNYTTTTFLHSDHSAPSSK
Sequence of GABAA (P14867 28-456): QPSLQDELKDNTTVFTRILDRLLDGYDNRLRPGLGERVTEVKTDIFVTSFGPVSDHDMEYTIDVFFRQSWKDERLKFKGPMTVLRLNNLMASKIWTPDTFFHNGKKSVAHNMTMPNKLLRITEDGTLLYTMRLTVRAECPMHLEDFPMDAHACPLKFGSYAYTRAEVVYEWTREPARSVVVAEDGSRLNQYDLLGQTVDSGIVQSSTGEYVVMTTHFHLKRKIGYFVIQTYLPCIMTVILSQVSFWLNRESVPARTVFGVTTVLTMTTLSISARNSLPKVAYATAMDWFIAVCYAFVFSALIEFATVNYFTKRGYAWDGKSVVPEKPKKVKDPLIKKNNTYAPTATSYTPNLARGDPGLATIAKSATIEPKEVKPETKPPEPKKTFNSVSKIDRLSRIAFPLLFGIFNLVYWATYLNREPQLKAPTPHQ
Sequence of GABAA (P47870 26-512): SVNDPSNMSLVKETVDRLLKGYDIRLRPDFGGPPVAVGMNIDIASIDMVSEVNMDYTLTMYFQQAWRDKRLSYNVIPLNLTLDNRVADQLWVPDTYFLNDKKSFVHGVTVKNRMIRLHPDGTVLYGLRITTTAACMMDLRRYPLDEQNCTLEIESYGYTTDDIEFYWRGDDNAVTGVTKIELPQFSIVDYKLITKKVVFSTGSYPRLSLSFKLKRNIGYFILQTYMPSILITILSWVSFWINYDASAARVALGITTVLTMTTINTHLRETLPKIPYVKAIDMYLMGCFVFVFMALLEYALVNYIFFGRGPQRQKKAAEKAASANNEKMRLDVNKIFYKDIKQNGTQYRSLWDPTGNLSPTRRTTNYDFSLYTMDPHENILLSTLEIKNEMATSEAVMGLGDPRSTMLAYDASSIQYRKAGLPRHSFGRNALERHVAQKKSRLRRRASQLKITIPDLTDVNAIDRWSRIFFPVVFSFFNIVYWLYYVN
Sequence of GABAA (P18507 40-475): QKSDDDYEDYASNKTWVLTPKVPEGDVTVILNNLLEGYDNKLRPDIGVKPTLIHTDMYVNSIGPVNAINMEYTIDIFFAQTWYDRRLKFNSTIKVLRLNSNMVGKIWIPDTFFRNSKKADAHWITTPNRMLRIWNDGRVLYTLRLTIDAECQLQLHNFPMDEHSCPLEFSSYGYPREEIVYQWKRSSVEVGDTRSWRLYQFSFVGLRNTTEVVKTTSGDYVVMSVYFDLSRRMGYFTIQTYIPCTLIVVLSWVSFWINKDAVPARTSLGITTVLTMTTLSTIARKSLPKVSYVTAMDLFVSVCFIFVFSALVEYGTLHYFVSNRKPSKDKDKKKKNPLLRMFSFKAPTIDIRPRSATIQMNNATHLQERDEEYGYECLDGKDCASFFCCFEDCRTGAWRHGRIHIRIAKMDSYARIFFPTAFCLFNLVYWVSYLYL

Cn1c(=O)c2c(c3cc(Nc4ccnc(F)c4Cl)ccc31)N[C@@H](C1CC1)C(F)(F)CO2 [compound 17, (S)-10-((3-chloro-2-fluoropyridin-4-yl)amino)-2-cyclopropyl-3,3-difluoro-7-methyl-1,2,3,4-tetrahydro-[1,4]oxazepino[2,3-c]quinolin-6(7H)-one]
GI50 (SU-DHL-4): 1.38 µM
IC50 (SERT): > 10 µM
Emax (SERT; SERT, Transporter, Blocker, read-out: Max Response): 0%
Emax (LCK; read-out: Max Response): 0.08%
IC50 (LCK; read-out: RC50 (IC50)): > 10 µM
IC50 (OPRK1): > 10 µM
Emax (OPRK1; OPRK1, cAMP, Antagonist, read-out: Max Response): 0.95%
Hill (ADRB2): 1.29
Emax (ADRB2; read-out: Max Response): 89%
IC50 (ADRB2; read-out: RC50 (IC50)): 1.77 µM
IC50 (ADRA2A): > 10 µM
Emax (ADRA2A; ADRA2A, cAMP, Antagonist, read-out: Max Response): 0%
Emax (CCKAR; read-out: Max Response): 0.06%
EC50 (CCKAR; read-out: RC50 (EC50)): > 10 µM
EC50 (DRD2S): 3.5 µM
Hill (DRD2S; DRD2S, cAMP, Agonist): 1.25
Emax (DRD2S; DRD2S, cAMP, Agonist, read-out: Max Response): 72.1%
Emax (CAV1.2): 0%
IC50 (CAV1.2): > 10 µM
Emax (PDE3A; read-out: Max Response): 2.67%
IC50 (PDE3A; read-out: RC50 (IC50)): > 10 µM
IC50 (nAChR(a4/b2)): > 10 µM
Emax (nAChR(a4/b2); nAChR(a4/b2), Ion Channel, Blocker, read-out: Max Response): 0%
IC50 (GABAA): > 10 µM
Emax (GABAA; GABAA, Ion Channel, Blocker, read-out: Max Response): 0%
